According to paper PMC4601051, “Discovery of Indoline-2-carboxamide Derivatives as a New Class of Brain-Penetrant Inhibitors of Trypanosoma brucei” (Journal of Medicinal Chemistry, 2015):
Where two headings read alike, the source gives them in different places.

Experiments:
[1] = Microsomal intrinsic clearance (Clint), mouse; type: in vitro ADME; details: mouse liver microsomes, 0.5 μM compound
Description: (§1) Each test compound (0.5 μM) was incubated with pooled female CDI mouse liver microsomes, pooled male Sprague–Dawley rat microsomes, or pooled mixed gender human liver microsomes (Tebu-Bio, UK; 0.5 mg/mL 50 mM potassium phosphate buffer, pH 7.4) and the reaction started with addition of excess NADPH (8 mg/mL, 50 mM potassium phosphate buffer, pH 7.4). Immediately, at time zero, then at 3, 6, 9, 15, and 30 min, an aliquot (50 μL) of the incubation mixture was removed and mixed with acetonitrile (100 μL) to stop the reaction. Internal standard was added to all samples, and the samples were centrifuged at 1825g for 10 min to sediment precipitated protein. The plates were then sealed prior to UPLC/MS/MS analysis using a Quattro Premier XE (Waters Corporation, USA).
(§2) XLfit (IDBS, UK) was used to calculate the exponential decay and consequently the rate constant (k) from the ratio of peak area of test compound to internal standard at each time point.

[2] = tested on: bloodstream form T. brucei brucei; assay: T. b. brucei whole cell parasite (trypanosome growth) assay; type: cell-based, Trypanosoma brucei brucei; details: for EC50: 69 h + 4 h resazurin; for loss in potency: T. b. brucei EC50, compared to 1 (parent)
Description: This was conducted as previously described.[27] Cell culture plates were stamped with 1 μL of an appropriate stock concentration of test compound, followed by addition of 200 μL of trypanosome culture (HMI9-T, 10% FCS) to each well at a density of 2000 cells per well (except column 12 receiving media only). […] Potency was carried out using 10-point dose–response curves.

[3] = in vitro; details: human
Description: Proliferation assays using bloodstream form T. brucei brucei and human MRC-5 fibroblasts were conducted using a modification of the cell viability assay as previously reported.[27],[39]
MRC-5 cells (2000 cells per well) were seeded in 200 μL of DMEM, 10% FCS, and allowed to adhere overnight. One microliter of test compound was added to each well on the day of assay initiation.
The final DMSO level was 0.5% in all cases.

[4] = Microsomal intrinsic clearance (Clint), rat; type: in vitro ADME; details: rat liver microsomes, 0.5 μM compound
Description: as §1, §2

[5] = Microsomal intrinsic clearance (Clint), human; type: in vitro ADME; details: human liver microsomes, 0.5 μM compound
Description: as §1, §2

[6] = Trypanosoma brucei, mean of two or more determinations, read-out: T. b. brucei EC50
[7] = mean of two or more determinations, read-out: T. b. brucei EC50

| SMILES | mouse microsomal intrinsic clearance [1] | EC50 [2, 6] | EC50 at 69 h ([3]; MRC-5 fibroblasts) | other results |
| --- | --- | --- | --- | --- |
| CNC(=O)C1Cc2ccccc2N1C(=O)Cc1ccc(C(C)C)cc1 (centres unmarked) [Compound 41] | 35 mL min^–1 g^–1 | 0.77 µM | > 50 µM | – |
| CNC(=O)C1Cc2cc(-c3ccccc3)ccc2N1C(=O)COc1ccc(F)cc1 (centres unmarked) [Compound 61] | – | 0.24 µM | > 50 µM | microsomal intrinsic clearance, rat [4]: 25 mL min^–1 g^–1; loss in potency [2]: ~10 fold |
| CNC(=O)C1Cc2ccccc2N1C(=O)Cc1ccc(C(F)(F)F)cc1 (centres unmarked) [Compound 42] | 3.0 mL min^–1 g^–1 | 0.1 µM | > 50 µM | EC50 [2, 7]: 0.11 µM |
| CNC(=O)C1Cc2cc(F)cc(F)c2N1C(=O)COc1ccc(F)cc1 (centres unmarked) [Compound 58] | 2.9 mL min^–1 g^–1 | 0.08 µM | > 50 µM | – |
| CNC(=O)C1Cc2cc(-c3ccncc3)ccc2N1C(=O)COc1ccc(F)cc1 (centres unmarked) [Compound 62] | – | 0.44 µM | > 50 µM | loss in potency [2]: ~10 fold |
| CNC(=O)C1Cc2ccccc2N1C(=O)COc1ccc(Cl)c(Cl)c1 (centres unmarked) [Compound 30] | 9.1 mL min^–1 g^–1 | 0.4 µM | > 50 µM | loss in potency [2]: 15 fold |
| CNC(=O)[C@H]1Cc2ccccc2N1C(=O)COc1ccc(F)cc1 [Compound 36] | 1.2 mL min^–1 g^–1 | 0.04 µM | > 50 µM | microsomal intrinsic clearance, rat [4]: 4.9 mL min^–1 g^–1; microsomal intrinsic clearance, human [5]: 1.3 mL min^–1 g^–1 |
| CCNC(=O)C1Cc2ccccc2N1C(=O)COc1ccc(Cl)cc1 (centres unmarked) [Compound 49] | 6.2 mL min^–1 g^–1 | 0.09 µM | > 50 µM | – |
| CCNC(=O)C1Cc2ccccc2N1C(=O)COc1cccc(C)c1 (centres unmarked) [Compound 22] | – | 0.65 µM | > 50 µM | – |
| CNC(=O)C1Cc2ccccc2N1C(=O)Cc1ccccc1 (centres unmarked) [Compound 21] | – | 0.22 µM | > 15 µM | – |
| O=C(NC1CC1)C1Cc2ccccc2N1C(=O)COc1ccc(Cl)cc1 (centres unmarked) [Compound 51] | 5.5 mL min^–1 g^–1 | 0.41 µM | > 50 µM | loss in potency [2]: ~14 fold |
| CNC(=O)C1Cc2cc(F)ccc2N1C(=O)COc1ccc(Cl)cc1 (centres unmarked) [Compound 54] | 2.8 mL min^–1 g^–1 | 0.06 µM | > 50 µM | microsomal intrinsic clearance, rat [4]: 5.3 mL min^–1 g^–1; microsomal intrinsic clearance, human [5]: 1.6 mL min^–1 g^–1 |
| CNC(=O)C1Cc2ccccc2N1C(=O)COc1ccc(C)cc1 (centres unmarked) [Compound 34] | 6.5 mL min^–1 g^–1 | 0.03 µM | > 50 µM | microsomal intrinsic clearance, rat [4]: 47 mL min^–1 g^–1; microsomal intrinsic clearance, human [5]: 2.4 mL min^–1 g^–1 |
| CNC(=O)[C@H]1Cc2ccccc2N1C(=O)COc1ccc(F)c(F)c1 [Compound 37] | 3.2 mL min^–1 g^–1 | 0.03 µM | > 50 µM | – |
| CNC(=O)C1Cc2ccccc2N1C(=O)COc1ccc2ccccc2c1 (centres unmarked) [Compound 18] | – | 2.9 µM | > 50 µM | – |
| CNC(=O)C1Cc2cc(F)c(F)cc2N1C(=O)COc1ccc(F)cc1 (centres unmarked) [Compound 57] | 2.0 mL min^–1 g^–1 | 0.09 µM | > 50 µM | microsomal intrinsic clearance, rat [4]: 2.8 mL min^–1 g^–1; microsomal intrinsic clearance, human [5]: 1.9 mL min^–1 g^–1 |
| CCCCNC(=O)C1Cc2ccccc2N1C(=O)COc1ccc(Cl)cc1 (centres unmarked) [Compound 50] | 27 mL min^–1 g^–1 | 19 µM | > 50 µM | loss in potency [2]: ~700 fold |
| CNC(=O)C1Cc2ccccc2N1C(=O)COc1ccc(Cl)c(F)c1 (centres unmarked) [Compound 29] | 4.4 mL min^–1 g^–1 | 0.03 µM | > 50 µM | microsomal intrinsic clearance, rat [4]: 13.5 mL min^–1 g^–1; microsomal intrinsic clearance, human [5]: 3.3 mL min^–1 g^–1 |
| CNC(=O)C1Cc2ccccc2N1C(=O)COCc1ccccc1 (centres unmarked) [Compound 28] | – | 1.9 µM | > 50 µM | loss in potency [2]: ~70 fold |
| CNC(=O)C1Cc2c(cc(F)c(F)c2F)N1C(=O)COc1ccc(Cl)cc1 (centres unmarked) [Compound 59] | 3.7 mL min^–1 g^–1 | 0.07 µM | > 50 µM | microsomal intrinsic clearance, rat [4]: 6.7 mL min^–1 g^–1; microsomal intrinsic clearance, human [5]: 4.3 mL min^–1 g^–1 |

| SMILES | mouse microsomal intrinsic clearance [1] | EC50 [2, 6] | EC50 at 69 h ([3]; MRC-5 fibroblasts) | other results |
| --- | --- | --- | --- | --- |
| CNC(=O)C1Cc2ccccc2N1C(=O)COc1ccccc1 (centres unmarked) [Compound 31] | 6.9 mL min^–1 g^–1 | 0.04 µM | > 50 µM | microsomal intrinsic clearance, rat [4]: 9.0 mL min^–1 g^–1; microsomal intrinsic clearance, human [5]: 1.4 mL min^–1 g^–1 |
| CNC(=O)[C@H]1Cc2ccccc2N1C(=O)Cc1ccc(Cl)c(F)c1 [Compound 45] | 8.4 mL min^–1 g^–1 | 0.08 µM | > 50 µM | – |
| CCOc1ccc(OCC(=O)N2c3ccccc3CC2C(=O)NC)cc1 (centres unmarked) [Compound 17] | – | 0.31 µM | > 50 µM | – |
| CNC(=O)C1Cc2ccccc2CN1C(=O)COc1ccc(F)cc1 (centres unmarked) [Compound 66] | – | 37 µM | > 50 µM | – |
| Cc1cccc(OCC(=O)N2c3ccccc3CC2C(N)=O)c1 (centres unmarked) [Compound 24] | – | 13 µM | > 50 µM | – |
| CN(C)C(=O)C1Cc2ccccc2N1C(=O)COc1ccc(Cl)cc1 (centres unmarked) [Compound 48] | – | 5.4 µM | > 50 µM | loss in potency [2]: 200 fold |
| CNC(=O)C1Cc2ccccc2N1C(=O)Cc1cccs1 (centres unmarked) [Compound 20] | – | 0.66 µM | > 50 µM | – |
| CCNC(=O)C1Cc2ccccc2N1C(=O)CCC1CCCC1 (centres unmarked) [Compound 23] | – | 0.99 µM | > 50 µM | – |
| CC(C)Oc1ccc(C(=O)N2c3ccccc3CC2C(N)=O)cc1 (centres unmarked) [Compound 25] | – | > 50 µM | > 50 µM | – |
| CNC(=O)C1Cc2ccccc2N1C(=O)Cc1ccc(F)c(F)c1 (centres unmarked) [Compound 46] | 1.9 mL min^–1 g^–1 | 0.11 µM | > 50 µM | – |
| CNC(=O)C1Cc2ccccc2N1C(=O)Cc1ccc(F)cc1 (centres unmarked) [Compound 43] | 0.8 mL min^–1 g^–1 | 0.1 µM | > 50 µM | EC50 [2, 7]: 0.11 µM |
| CNC(=O)C1Cc2ccccc2N1C(=O)COc1cccc(OC)c1 (centres unmarked) [Compound 19] | – | 0.45 µM | > 50 µM | – |
| CNC(=O)C1Cc2cc(Br)ccc2N1C(=O)COc1ccc(F)cc1 (centres unmarked) [Compound 60] | 4.6 mL min^–1 g^–1 | 0.08 µM | > 50 µM | – |
| [2H]c1c([2H])c([2H])c(OCC(=O)N2c3ccccc3C[C@@H]2C(=O)NC)c([2H])c1[2H] [Compound 38] | – | 0.05 µM | > 50 µM | – |
| CNC(=O)[C@H]1Cc2cc(F)ccc2N1C(=O)COc1ccc(F)cc1 [Compound 56] | – | 0.04 µM | > 50 µM | – |
| CNC(=O)C1Cc2ccccc2N1C(=O)Cc1ccc(Cl)cc1 (centres unmarked) [Compound 40] | 4.4 mL min^–1 g^–1 | 0.08 µM | > 50 µM | improvement in activity ([2]; T. b. brucei EC50, compared to 21): approximately 3 fold |
| CNC(=O)C1Cc2ccccc2N1C(=O)Cc1cccc2ccccc12 (centres unmarked) [Compound 39] | 28 mL min^–1 g^–1 | – | – | T. b. brucei potency in words [2]: complete loss of potency; EC50 ([2]; Trypanosoma brucei, read-out: T. b. brucei EC50, mean of two or more determinations): 50 µM; EC50 at 69 h [3]: > 50 µM |
| CNC(=O)C1N(C(=O)COc2ccc(Cl)cc2)c2ccccc2C1(C)C (centres unmarked) [Compound 63] | 14 mL min^–1 g^–1 | 0.92 µM | > 50 µM | loss in potency [2]: ~34 fold |
| CNC(=O)C1Cc2ccccc2N1C(=O)Cc1ccc(F)cc1F (centres unmarked) [Compound 44] | 0.5 mL min^–1 g^–1 | 2.3 µM | > 50 µM | – |
